Assay results taken from patent US5369111A, “Modulator agent and use thereof” (University of Vermont, priority 1992, dated 1994).

Assays:
[1] = tested on: KB-3-1 cells; assay: Modulation of drug sensitivity, KB-3-1; format: cell-based, human; conditions: ADM, VBL, VCR
Protocol: (§1) Mid-exponential cultures were used for all assays. The RCC-2 and RCC-5 cell lines were seeded into 24-well plates at 2×10^4 cells/well and allowed to attach to the substratum for 16-18 h prior to treatment. The S180 cell lines were seeded into culture tubes at 1×10^5 cells/ml and treated immediately. Cytotoxicity was determined by quantitation of population growth after 72 h incubation by electronic particle counter (Coulter Electronics, Hialeah, Fla.). The human tumor cell lines were used in a clonogenic assay for cytotoxicity. Cells were seeded at 300 cells/dish, incubated overnight and then treated. Colonies were scored 7-11 days later. In all assays of analog modulation of drug sensitivity, the analog was added minutes prior to the addition of cytotoxic drug.
(§2) FIG. 10 represents the potency of the analog C-20'-deoxy deethyl vincovaline as a modulator of the drug sensitivity of various cell lines: the parental S180 cell line: the two rat colon cancer cell lines, RCC-2 and RCC-5; and the human epidermoid carcinoma cell line KB-3-1 and its MDR cell strain KB-V1, which expresses very high levels of drug resistance (200-500 fold). The enhancement of sensitivity was calculated as the sensitivity index =IC50 of the drug alone divided by the IC50 of the drug+analog. […] The cytotoxicity of drug and analog treatments in the KB cell lines were measured by cloning efficiencies. […]

[2] = tested on: S180 MDR cell strains A3 and A10; assay: Modulation of acquired drug resistance in the S180 MDR cell strains A3 and A10; format: cell-based, murine; conditions: VBL, VCR and ADM
How it was run: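 MDR S180 lines in tubes (1×10^5 cells/ml) exposed to graded modulator added minutes before ADM, VBL or VCR at parental IC70s (2.0×10^-7 M ADM, 1.5×10^-8 M VBL, 4.5×10^-8 M VCR). Growth counted electronically at 72 h. Reversing concentration = minimum modulator giving 70% inhibition; duplicates, two experiments.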

[3] = tested on: RCC-5 cells; assay: Modulation of intrinsic drug resistance, RCC-5; format: cell-based, rat; conditions: VCR
Protocol: as §1
*calculated as the IC50 of the drug alone divided by the IC50 o
the [drug modulator] combination. Data are presented from tretments with
the nontoxic concentration limit of each analog as noted.
FIG. 9 represents the modulation of VCR sensitivity in the RCC-12 (A) and RCC-5 (B) cell lines by the analog C-20'-deoxy deethyl vincovaline. Population growth was determined after 72 hours incubation in the absence (o), or presence of 10 μM (o), 20 μM (Δ), or 50 μM of analog. Data presented are from a typical experiment.

[4] = tested on: KB-V1 cells; assay: Modulation of acquired resistance, KB-V1; format: cell-based, human; conditions: at the non-toxic concentration limit of 20 μM
Protocol: as §1, §2

[5] = tested on: S180 cells, parental; assay: Modulation of intrinsic drug resistance, parental S180; format: cell-based, murine; conditions: S180 parental
How it was run: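 Parental S180 cells at 1×10^5 cells/ml treated with modulator (10^-6 M up to non-toxic IC10-20 or solubility limit) added minutes before VBL, VCR or ADM; growth counted electronically after 72 h. Sensitivity index = drug IC50 alone / drug IC50 with modulator; duplicates from two experiments.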

[6] = Viability (MTT test) of P388 S cells; format: cell-based; conditions: mouse; sensitive cells P388 S, 24 h and 48 h; read-out: concentrations up to which no cytotoxicity is seen
Text: The sensitization of C-20'-deoxy C-20'-deethyl vincovaline (D-DEV) has been tested on sensitive and resistants P388 cell lines originating from mouse lympnoma.
The resistance to anticancerous drug has been induced on DBA2 mouses bearing P388 cells ascites and maintained by treatment with adryamycin.
This study has been carried out at least in triplicate.

Q: Which results are given for CC[C@]12C=CCN3CC[C@@]4(c5cc([C@]6(C(=O)OC)C[C@H]7CCCN(CCc8c6[nH]c6ccccc86)C7)c(OC)cc5N(C)[C@H]4[C@@](O)(C(=O)OC)[C@@H]1OC(C)=O)[C@@H]32 [analog n° 352, C-20'-deoxy-20'-deethyl-C-14', 16'-epi-VBL]?
A: sensitization to all three drugs [1]: 3-5 fold; range of resistance levels over which parental sensitivity was restored [2]: 3-17 fold; maximum sensitization to VCR ([3]; RCC-5): 28 fold; concentration overcoming the greater intrinsic resistance of RCC-5 to VCR ([3]; RCC-5 compared to RCC-2): 10 to 20 µM; sensitization to VCR only [4]: 6 fold; maximum degree of sensitization to ADM ([5]; ADM): 5.5 fold; maximum degree of sensitization to VBL and VCR ([5]; VBL and VCR): 2.3-2.7 fold; MNTC [6]: ≥ 25 µM
